The text below walks through data of US4552888A, “Ascorbic acid ethers in angiogene” (Eli Lilly and Company, priority 1983, dated 1985).

Structures can show the parent of a compound that is named as a salt.

As usually defined, the pKa is the negative logarithm of the acid dissociation constant.

Test system in one data set: not listed separately
In words: pKa by titration. It is filed as physicochemical.
Conditions: not given
On to `CC1(C)OC[C@@H]([C@H]2OC(=O)C(OCCCCC#N)=C2OCCCCC#N)O1` [2,3-O-bis(4-cyanobutyl)-5,6-O-(1-methylethylidene)-L-ascorbic acid], for which the titratable group entry was “No titratable group”.

`CC1(C)OC[C@@H]([C@H]2OC(=O)C(OCc3ccc(F)cc3)=C2OCc2ccc(F)cc2)O1` [2,3-O-bis(4-fluorobenzyl)-5,6-O-(1-methylethylidene)-L-ascorbic acid]: the titratable group entry is “No titratable group”. `CCCCCCCCCCCCCCCCCCOC1=C(OCCCCCCCCCCCCCCCCCC)[C@@H]([C@@H]2COC(C)(C)O2)OC1=O` [2,3-O-bis(n-octadecy-5,6-O-(1-methylethylidene)-L-ascorbic acid]: the titratable group result is “No titratable group”. On the same count and under the same terms, the result for `CCCCCCCCCCCCCCCOC1=C(OCCCCCCCCCCCCCCC)[C@@H]([C@@H]2COC(C)(C)O2)OC1=O` [2,3-O-bis(n-pentadecyl)-5,6-O-(1-methylethylidene)-L-ascorbic acid] reads “No titratable groups”.

Consider `Cc1ccccc1COC1=C(OCc2ccccc2C)[C@@H]([C@@H]2COC(C)(C)O2)OC1=O` [2,3-bis(O-2-methylbenzyl)-5,6-O-(1-methylethylidene-L-ascorbic acid], for which the titratable group entry was “No titratable group”.

`CCCCCCCCCCCCCCCCOC1=C(OCCCCCCCCCCCCCCCC)[C@@H]([C@@H](O)CO)OC1=O` [2,3-di-(O-n-hexadecyl)-L-ascorbic acid]: the titratable group result was “no titratable group”. For the compound `COCCOC1=C(O)C(=O)O[C@@H]1[C@@H]1COC(C)(C)O1` [3-O-(2-methoxyethyl)-5,6-O-(1-methylethylidene)-L-ascorbic acid], the pKa is recorded as 10.31.

Still in this data set, the particulars now being: read-out: pKa.
Take `CCCCCCCCCCCCCCCCCCOC1=C(O)C(=O)O[C@@H]1[C@H](O)CO` (relative stereo) [3-O-n-octadecyl isoascorbic acid]: the pKa was 11.6. The same measure, in the same setting: the result for `CCCCCCCCCCCCCCCCCCOC1=C(OCCCN(C)C)C(=O)O[C@@H]1[C@@H](O)CO` [2-O-(3-dimethylaminopropyl)-3-O-n-octadecyl-L-ascorbic acid hydrochloride] reads 8; that for `COc1ccc(OC)c(C(=O)COC2=C(O)C(=O)O[C@@H]2[C@@H]2COC(C)(C)O2)c1` [3-O-(2,5-dimethoxyphenacyl)-5,6-O-(1-methylethylidene)-L-ascorbic acid], 10.6. `CC1(C)OC[C@@H]([C@H]2OC(=O)C(O)=C2OCCOCCBr)O1` [3-O-(2-bromoethoxyethyl)-5,6-O-(1-methylethylidene)-L-ascorbic acid]: the pKa is 10.4. For `Cc1ccccc1COC1=C(O)C(=O)O[C@@H]1[C@@H](O)CO` [3-O-(2-methylbenzyl)-L-ascorbic acid], the pKa was 10.8.

For `CC1(C)OC[C@@H]([C@H]2OC(=O)C(O)=C2OCCN2C(=O)c3ccccc3C2=O)O1` [3-O-(2-phthalimidoethyl)-5,6-O-(1-methylethylidene)-L-ascorbic acid], the pKa worked out at 10.3. In the case of `O=C1O[C@H]([C@@H](O)CO)C(OCc2cccc(Br)c2)=C1O` [3-O-(3-bromobenzyl)-L-ascorbic acid], the pKa worked out at 10.5. With `CC1(C)OC[C@@H]([C@H]2OC(=O)C(O)=C2OCCCOc2ccccc2)O1` [3-O-(3-phenoxypropyl)-5,6-O-(1-methylethylidene)-L-ascorbic acid], the pKa stood at 10.7. Consider `CCCCCCCCCCCCCCCCCCOC1=C(O)C(=O)O[C@@H]1[C@@H]1COC(C)(CCl)O1` (stereo partly drawn) [3-O-n-octadecyl-5,6-O-(1-chloromethylethylidene)-L-ascorbic acid], for which the pKa came to 9. Same read-out and setting: the result for `CCCCCCCCCCCCCCCCCCOC1=C(O)C(=O)O[C@H]1[C@H](O)CO` [3-O-n-octadecyl-D-ascorbic acid] reads 11; that for `CCCCCCCCCCCCCCCOC1=C(O)C(=O)O[C@@H]1[C@@H]1COC(C)(C)O1` [3-O-n-pentadecyl-5,6-O-(1-methylethylidene)-L-ascorbic acid], 10.9.

Turning to `O=C1OC(C2COC(Cc3ccccc3)(Cc3ccccc3)O2)C(O)=C1O` [5,6-O-(1-benzyl-2-phenylethylidene)-L-ascorbic acid], the pKa was determined as 6.55. For `CC1(CCl)OC[C@@H]([C@H]2OC(=O)C(O)=C2O)O1` (stereo partly drawn) [5,6-O-(1-chloromethylethylidene)-L-ascorbic acid], the pKa came to 6.1. With `CCCCCCCCCCC1OC[C@@H]([C@H]2OC(=O)C(O)=C2O)O1` (stereo partly drawn) [5,6-O-undecylidene-L-ascorbic acid], the pKa amounted to 6.48.

The subject of a further data set is angiogenesis factor. In words: Inhibition of angiogenesis factor (3683 Morris hepatoma lysosomal-mitochondrial pellet) induced serpentine vessels in mice. Format: in vivo, mice (SPF/ND4 female). Particulars: Mus musculus, ip, 24 h, Table 1; dose 300 mg./kg. Here is the method: Lysosomal-mitochondrial pellets containing angiogenesis factor are prepared from 3683 Morris hepatoma. The pellet is diluted with 7-8 ml. of 15% ficoll. With this dilution, 8-10 serpentine vessels will be produced per 0.2 cc. injection as described below for the control group.
Next, 15 SPF/ND4 female mice weighing 20-22 g. are shaved on the left side and then divided into three groups of five each. One group (drug group) is injected subcutaneously and laterally with 0.20 cc. of the lysosomal-mitochondrial preparation diluted with 15% ficoll. This group of mice is then dosed individually by the intraperitoneal route with 0.5 cc. of a solution or suspension in a standard vehicle containing the compound under test, usually at an initial dose level of 300 mg./kg. If this dose level is toxic, two-fold dilutions are made until all mice survive a single dose. The second group of mice (control group) is injected subcutaneously and laterally with 0.2 cc. of the lysosomal-mitochondrial suspension diluted with 15% ficoll and dosed intraperitoneally with 0.5 cc. of the vehicle alone. The third group (negative control) is injected with ficoll solution only (no treatment with drug or vehicle). The mice are sacrificed after 24 hours. Each mouse is placed on its side on a dissecting board with the shaved side up. Starting at the flank, the skin is cut straight to the back of the animal. A similar cut is made behind the front leg. Then the skin is cut along the back making a flap of about one inch by two inches. The skin is carefully separated from the connective tissue using forceps and a scalpel. The skin flap is then laid back exposing the lysosomal-mitochondrial implant which is attached to the skin. The skin flap is gently flattened out and with the use of a binocular dissecting scope, serpentine vessels are observed around the lysosomal-mitochondrial implant and their number counted. All observations of the number of serpentine vessels are made at the same power of the microscope (1X). The average number of serpentine vessels for each group is calculated. The percent inhibition is then calculated according to the following equation. [formula] where sv=average number of serpentine vessels.
If the negative control group described above has any serpentine vessels, the test is invalid due to contamination of the ficoll solution.
Table I covers compounds according to formula I above in which R^2 and R^3 are both H, table II covers compounds in which R^2 and R^3 form a 1-methylethylidene group, and Table III compounds in which R^2 plus R^3 equal a benzylidene group or other group.
One of the compounds of this invention, 3-O-n-octadecyl-5,6-O-(1-methylethylidene)-L-ascorbic acid was tested at a series of dose levels for its ability to inhibit tumor angiogenesis and the results of these tests are set forth in Table IV.
Compound `O=C1O[C@H]([C@@H](O)CO)C(OCCOCCBr)=C1O` [3-O-(2-bromoethoxyethyl)-L-ascorbic acid] yielded an inhibition in vivo at 300 mg/kg of 36%. Still for that read-out and setting: the result for `O=C1O[C@H]([C@@H](O)CO)C(OCCN2C(=O)c3ccccc3C2=O)=C1O` [3-O-(2-phthalimidoethyl)-L-ascorbic acid] reads 55%.

Compound `O=C1O[C@H]([C@@H](O)CO)C(OCc2cccc(Br)c2)=C1O` [3-O-(3-bromobenzyl)-L-ascorbic acid] returned an inhibition in vivo at 300 mg/kg of 74%. In turn, `O=C1O[C@H]([C@@H](O)CO)C(OCCCOc2ccccc2)=C1O` [3-O-(3-phenoxypropyl)-L-ascorbic acid] showed an inhibition in vivo at 300 mg/kg of 68%.

In the case of `CCCCCCCCCCCCCCCOC1=C(O)C(=O)O[C@@H]1[C@@H](O)CO` [3-O-n-pentadecyl-L-ascorbic acid], the inhibition in vivo at 300 mg/kg is 50%.

The same data set, now with this note: Mus musculus, ip, 24 h, Table 1; i.p.; dose 25 mg./kg.; 24 hours; read-out: average % inhibition (serpentine vessels).
For `O=C1O[C@H]([C@@H](O)CO)C(OCc2cccc(Cl)c2)=C1O` [3-O-(3-chlorobenzyl)-L-ascorbic acid], the inhibition in vivo at 25 mg/kg was found to be 41%. Take `O=C1O[C@H]([C@@H](O)CO)C(OCc2cccc(F)c2)=C1O` [3-O-(3-fluorobenzyl)-L-ascorbic acid]: the inhibition in vivo at 25 mg/kg stood at 52%. The same measure, in the same setting: the result for `Cc1cccc(COC2=C(O)C(=O)O[C@@H]2[C@@H](O)CO)c1` [3-O-(3-methylbenzyl)-L-ascorbic acid] reads 54%; that for `O=C(O)CCCCCCCCCCOC1=C(O)C(=O)O[C@@H]1[C@@H](O)CO` [3-O-(ω-hydroxycarbonyldecyl)-L-ascorbic acid], 41%.

The same data set, now with this note: Mus musculus, ip, 24 h, Table 2; dose 37.5 mg./kg.
With `CC1(C)OC[C@@H]([C@H]2OC(=O)C(OCc3ccc(F)cc3)=C2OCc2ccc(F)cc2)O1` [2,3-O-bis(4-fluorobenzyl)-5,6-O-(1-methylethylidene)-L-ascorbic acid], the inhibition in vivo at 37.5 mg/kg came to 45%.

Still in this data set, the particulars now being: Mus musculus, ip, 24 h, Table 2; dose 120 mg./kg.
The compound `CC1(C)OC[C@@H]([C@H]2OC(=O)C(O)=C2OCCN2C(=O)c3ccccc3C2=O)O1` [3-O-(2-phthalimidoethyl)-5,6-O-(1-methylethylidene)-L-ascorbic acid] registered an inhibition in vivo at 120 mg/kg of 30%.

Staying with this data set, now noted: Mus musculus, ip, 24 h, Table 2; dose 150 mg./kg.
The compound `CC1(C)OC[C@@H]([C@H]2OC(=O)C(O)=C2OCCCOc2ccccc2)O1` [3-O-(3-phenoxypropyl)-5,6-O-(1-methylethylidene)-L-ascorbic acid] returned an inhibition in vivo at 150 mg/kg of 36%.

The same data set, now with this note: Mus musculus, ip, 24 h, Table 2; dose 240 mg./kg.
The compound `CC1(C)OC[C@@H]([C@H]2OC(=O)C(O)=C2OCCOCCBr)O1` [3-O-(2-bromoethoxyethyl)-5,6-O-(1-methylethylidene)-L-ascorbic acid] yielded an inhibition in vivo at 240 mg/kg of 71%.

Staying with this data set, now noted: Mus musculus, ip, 24 h, Table 2; i.p.; dose 25 mg./kg.; 24 hours; read-out: % inhibition (serpentine vessels).
With `CCCCCCCCCCCCCCCCCCOC1=C(OCCCCCCCCCCCCCCCCCC)[C@@H]([C@@H]2COC(C)(C)O2)OC1=O` [2,3-O-bis(n-octadecy-5,6-O-(1-methylethylidene)-L-ascorbic acid], the inhibition in vivo at 25 mg/kg was in the range of 18 to 85%. Consider `CC1(C)OC[C@@H]([C@H]2OC(=O)C(O)=C2OCc2cccc(F)c2)O1` [3-O-(3-fluorobenzyl)-5,6-O-(1-methylethylidene)-L-ascorbic acid], for which the inhibition in vivo at 25 mg/kg lay in the range of 27 to 82%.

The same data set, now with this note: Mus musculus, ip, 24 h, Table 3; 150 mg./kg. dose intraperitoneally.
As for `COCCOC1=C(O)C(=O)O[C@@H]1[C@@H]1COC(c2ccccc2)O1` (stereo partly drawn) [3-(2-methoxyethyl)-5,6-O-benzylidine-L-ascorbic acid], the inhibition in vivo at 150 mg/kg is 31%. On the same count and under the same terms, the result for `CCCCOC1=C(O)C(=O)O[C@@H]1[C@@H]1COC(c2ccccc2)O1` (stereo partly drawn) [3-O-n-butyl-5,6-O-(benzylidene)-L-ascorbic acid] reads 60%.

The same data set, now with this note: Table 1; i.p.; dose 25 mg./kg.; 24 hours.
For `O=C1O[C@H]([C@@H](O)CO)C(OCc2ccccc2Cl)=C1O` [R=2-chlorobenzyl, R^1=H (Table 1)], the “average % inhibition (serpentine vessels)” value is given as 55%.

Staying with this data set, now noted: Table 2; i.p.; dose 10 mg./kg.; 24 hours.
Turning to `CCOC(=O)COC1=C(O)C(=O)O[C@@H]1[C@@H]1COC(C)(C)O1` [R=C2 H5 OCOCH2, R^1=H (Table 2)], the “% inhibition (serpentine vessels)” value is 12%. On the same count and under the same terms, the result for `COC1=C(O)C(=O)O[C@@H]1[C@@H]1COC(C)(C)O1` [R=methyl, R^1=H (Table 2)] reads 15%; that for `CCCCOC1=C(O)C(=O)O[C@@H]1[C@@H]1COC(C)(C)O1` [R=n-butyl, R^1=H (Table 2)], 60%.

Take `CCCCCCCCCCOC1=C(O)C(=O)O[C@@H]1[C@@H]1COC(C)(C)O1` [R=n-decyl, R^1=H (Table 2)]: the “% inhibition (serpentine vessels)” value was determined as 48%. On the same count and under the same terms, the result for `CCCCCCOC1=C(O)C(=O)O[C@@H]1[C@@H]1COC(C)(C)O1` [R=n-hexyl, R^1=H (Table 2)] reads 41%.

Staying with this data set, now noted: Table 2; i.p.; range dose 10-240 mg./kg.; 24 hours.
For `COCCOC1=C(O)C(=O)O[C@@H]1[C@@H]1COC(C)(C)O1` [3-O-(2-methoxyethyl)-5,6-O-(1-methylethylidene)-L-ascorbic acid], the “% inhibition (serpentine vessels)” value is recorded as 28-61%.
